Laboratory results reported in ChEMBL document CHEMBL5380830, “Development and Therapeutic Implications of Tyrosine Kinase 2 Inhibitors” (J Med Chem, 2023).
Blank lines part the entries; values can stand above or below the molecule they belong to.

What was measured:
[1] = molecular target: T1, Non-receptor tyrosine-protein kinase TYK2 (Homo sapiens, UniProt P29597); assay: Binding affinity to TYK2 JH2 (unknown origin)
[2] = molecular target: T1, Non-receptor tyrosine-protein kinase TYK2; assay: Inhibition of TYK2 signal transduction pathway in human PBMC cells assessed as IFNalpha induced p-STAT5 level; assay type: cell-based
JAK2/TYK2 [3] = molecular target: T2, JAK2/TYK2 (Homo sapiens, UniProt O60674+P29597); assay: Inhibition of JAK2/TYK2 signal transduction pathway in human NK92 cells assessed as IL-12 induced STAT4 phosphorylation; assay type: cell-based
[4] = molecular target: T1, Non-receptor tyrosine-protein kinase TYK2; assay: Inhibition of TYK2 signal transduction pathway in human TF-1 cells assessed as reduction in GM-CSF induced p-STAT5 level; assay type: cell-based
[5] = Half life in mouse at 10 mg/kg, po measured upto 24 hrs by LC-MS/MS analysis; assay type: ADME, organism-based; conditions: in vivo
[6] = Cmax in mouse at 10 mg/kg, po measured upto 24 hrs by LC-MS/MS analysis; assay type: ADME, organism-based; parameters: time < 24 hrs, dose 10 mg/kg, route po; conditions: in vivo
[7] = AUClast in mouse at 10 mg/kg, po measured upto 24 hrs by LC-MS/MS analysis; assay type: ADME, organism-based; parameters: dose 10 mg/kg, time < 24 hrs, route po; conditions: in vivo
[8] = Inhibition of IL-23 induced STAT phosphorylation in HEK293 cells by Western blotting analysis; assay type: cell-based; conditions: Homo sapiens
[9] = Inhibition of IFNalpha induced STAT phosphorylation in HEK293 cells by Western blotting analysis; assay type: cell-based; conditions: Homo sapiens
[10] = molecular target: T3, Tyrosine-protein kinase JAK1 (Homo sapiens, UniProt P23458); assay: Binding affinity to JAK1 JH2 (unknown origin)
[11] = molecular target: T4, Tyrosine-protein kinase JAK2 (Homo sapiens, UniProt O60674); assay: Binding affinity to JAK2 JH1 (unknown origin)
[12] = molecular target: T1, Non-receptor tyrosine-protein kinase TYK2; assay: Inhibition of TYK2 signal transduction pathway in human PBMC cells assessed as reduction in GM-CSF induced p-STAT5 level; assay type: cell-based
[13] = molecular target: T1, Non-receptor tyrosine-protein kinase TYK2; assay: Inhibition of TYK2 signal transduction pathway in human PBMC cells assessed as IL-2 induced p-STAT5 level; assay type: cell-based
[14] = molecular target: T3, Tyrosine-protein kinase JAK1; assay: Inhibition of human recombinant JAK1 preincubated for 15 mins followed by substrate addition measured after 60 mins by HTRF assay
[15] = molecular target: T4, Tyrosine-protein kinase JAK2; assay: Inhibition of human recombinant JAK2 preincubated for 15 mins followed by substrate addition measured after 60 mins by HTRF assay
[16] = molecular target: T5, Tyrosine-protein kinase JAK3 (Homo sapiens, UniProt P52333); assay: Inhibition of human recombinant JAK3 preincubated for 15 mins followed by substrate addition measured after 60 mins by HTRF assay
T5 sequence (P52333 whole entry): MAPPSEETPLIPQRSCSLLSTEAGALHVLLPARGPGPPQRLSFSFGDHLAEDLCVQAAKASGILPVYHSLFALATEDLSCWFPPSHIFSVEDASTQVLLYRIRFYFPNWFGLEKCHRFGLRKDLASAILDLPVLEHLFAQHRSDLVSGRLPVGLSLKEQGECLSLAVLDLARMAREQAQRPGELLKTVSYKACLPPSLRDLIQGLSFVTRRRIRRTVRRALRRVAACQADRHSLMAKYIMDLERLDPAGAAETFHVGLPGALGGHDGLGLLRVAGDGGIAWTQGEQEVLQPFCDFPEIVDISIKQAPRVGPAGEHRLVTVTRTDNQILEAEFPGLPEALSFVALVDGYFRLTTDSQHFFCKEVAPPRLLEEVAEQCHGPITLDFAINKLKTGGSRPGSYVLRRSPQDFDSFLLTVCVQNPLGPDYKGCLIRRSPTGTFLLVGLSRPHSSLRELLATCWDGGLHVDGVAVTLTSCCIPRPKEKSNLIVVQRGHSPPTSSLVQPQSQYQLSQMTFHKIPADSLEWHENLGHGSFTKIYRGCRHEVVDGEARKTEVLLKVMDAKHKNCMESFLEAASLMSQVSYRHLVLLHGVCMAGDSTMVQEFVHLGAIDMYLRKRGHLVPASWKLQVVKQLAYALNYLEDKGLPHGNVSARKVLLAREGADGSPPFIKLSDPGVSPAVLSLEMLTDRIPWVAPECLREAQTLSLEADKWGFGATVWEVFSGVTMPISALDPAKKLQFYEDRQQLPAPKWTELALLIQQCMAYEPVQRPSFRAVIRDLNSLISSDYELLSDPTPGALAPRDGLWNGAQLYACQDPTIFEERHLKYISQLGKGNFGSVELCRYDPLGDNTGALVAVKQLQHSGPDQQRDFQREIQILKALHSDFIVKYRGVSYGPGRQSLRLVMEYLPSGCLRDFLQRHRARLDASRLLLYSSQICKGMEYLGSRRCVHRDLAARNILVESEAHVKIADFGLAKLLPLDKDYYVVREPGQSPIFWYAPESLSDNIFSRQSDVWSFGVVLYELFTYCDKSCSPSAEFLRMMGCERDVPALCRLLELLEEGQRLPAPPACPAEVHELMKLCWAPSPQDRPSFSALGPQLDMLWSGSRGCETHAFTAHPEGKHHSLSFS

[17] = molecular target: T1, Non-receptor tyrosine-protein kinase TYK2; assay: Inhibition of human recombinant TYK2 preincubated for 15 mins followed by substrate addition measured after 60 mins by HTRF assay
JAK2/TYK2 [18] = molecular target: T2, JAK2/TYK2; assay: Inhibition of JAK2/TYK2 signal transduction pathway in human NK92 cells assessed as […] induced IFNgamma expression incubated for 24 hrs by ELISA assay; assay type: cell-based
[19] = molecular target: T1, Non-receptor tyrosine-protein kinase TYK2; assay: Inhibition of TYK2 in HEK-Blue IL-23 cells assessed as reduction in SEAP reporter gene expression by Quanti-blue assay; assay type: cell-based
[20] = molecular target: T1, Non-receptor tyrosine-protein kinase TYK2; assay: Binding affinity to human wild-type partial length TYK2 JH2 (G556 to D888 residues) expressed in mammalian expression system by KINOMEscan assay
[21] = molecular target: T4, Tyrosine-protein kinase JAK2; assay: Inhibition of JAK2 JH1 (unknown origin) at 10 uM relative to control
[22] = molecular target: T1, Non-receptor tyrosine-protein kinase TYK2; assay: Inhibition of TYK2 JH1 (unknown origin) at 10 uM relative to control
JAK2/TYK2 [23] = molecular target: T2, JAK2/TYK2; assay: Inhibition of JAK2/TYK2 signal transduction pathway in human PBMC cells assessed as IL-12 induced p-STAT4 level incubated for 30 mins; assay type: cell-based
JAK2/TYK2 [24] = molecular target: T2, JAK2/TYK2; assay: Inhibition of JAK2/TYK2 signal transduction pathway in human PBMC cells assessed as reduction in GM-CSF induced p-STAT5 level incubated for 20 mins; assay type: cell-based
[25] = molecular target: T1, Non-receptor tyrosine-protein kinase TYK2; assay: Inhibition of TYK2 JH2 (unknown origin) by scintillation proximity assay
[26] = molecular target: T1, Non-receptor tyrosine-protein kinase TYK2; assay: Inhibition of TYK2 JH2 in human TF-1 cells assessed as reduction of IFNalpha induced STAT1 phosphorylation; assay type: cell-based
[27] = Inhibition of IFNalpha induced STAT phosphorylation in human whole blood by fluorescence based analysis; assay type: tissue-based

T3 sequence (P23458 whole entry): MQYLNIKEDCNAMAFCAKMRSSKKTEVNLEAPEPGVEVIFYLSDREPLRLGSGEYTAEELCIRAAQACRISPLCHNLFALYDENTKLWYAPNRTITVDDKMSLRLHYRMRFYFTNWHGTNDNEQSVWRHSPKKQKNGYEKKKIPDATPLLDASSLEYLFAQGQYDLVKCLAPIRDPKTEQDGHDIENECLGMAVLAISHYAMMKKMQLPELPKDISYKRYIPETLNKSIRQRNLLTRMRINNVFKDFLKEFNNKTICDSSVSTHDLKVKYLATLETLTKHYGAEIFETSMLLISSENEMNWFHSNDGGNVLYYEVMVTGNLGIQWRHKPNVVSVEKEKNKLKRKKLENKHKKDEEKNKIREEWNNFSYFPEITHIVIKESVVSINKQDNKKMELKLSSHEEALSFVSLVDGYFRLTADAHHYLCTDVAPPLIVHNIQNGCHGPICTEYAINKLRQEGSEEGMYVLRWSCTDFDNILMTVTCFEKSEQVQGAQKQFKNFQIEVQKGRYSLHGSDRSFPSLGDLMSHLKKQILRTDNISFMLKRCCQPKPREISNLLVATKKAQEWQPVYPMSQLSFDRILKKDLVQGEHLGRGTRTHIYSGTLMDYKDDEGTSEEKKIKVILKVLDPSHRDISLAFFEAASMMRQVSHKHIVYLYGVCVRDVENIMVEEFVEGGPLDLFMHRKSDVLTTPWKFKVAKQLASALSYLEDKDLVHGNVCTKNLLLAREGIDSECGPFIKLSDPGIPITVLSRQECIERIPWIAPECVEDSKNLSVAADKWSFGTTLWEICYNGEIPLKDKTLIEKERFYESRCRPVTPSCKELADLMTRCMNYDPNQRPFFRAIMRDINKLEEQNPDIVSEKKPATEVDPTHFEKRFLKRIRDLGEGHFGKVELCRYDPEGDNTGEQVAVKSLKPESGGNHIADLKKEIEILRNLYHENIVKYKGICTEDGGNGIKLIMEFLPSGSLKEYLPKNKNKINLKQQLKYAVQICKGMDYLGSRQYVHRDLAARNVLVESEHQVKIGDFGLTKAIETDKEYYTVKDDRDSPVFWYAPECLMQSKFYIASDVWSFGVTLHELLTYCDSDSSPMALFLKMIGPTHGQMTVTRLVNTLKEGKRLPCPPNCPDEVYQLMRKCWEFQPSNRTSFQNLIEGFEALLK
T4 sequence (O60674 whole entry): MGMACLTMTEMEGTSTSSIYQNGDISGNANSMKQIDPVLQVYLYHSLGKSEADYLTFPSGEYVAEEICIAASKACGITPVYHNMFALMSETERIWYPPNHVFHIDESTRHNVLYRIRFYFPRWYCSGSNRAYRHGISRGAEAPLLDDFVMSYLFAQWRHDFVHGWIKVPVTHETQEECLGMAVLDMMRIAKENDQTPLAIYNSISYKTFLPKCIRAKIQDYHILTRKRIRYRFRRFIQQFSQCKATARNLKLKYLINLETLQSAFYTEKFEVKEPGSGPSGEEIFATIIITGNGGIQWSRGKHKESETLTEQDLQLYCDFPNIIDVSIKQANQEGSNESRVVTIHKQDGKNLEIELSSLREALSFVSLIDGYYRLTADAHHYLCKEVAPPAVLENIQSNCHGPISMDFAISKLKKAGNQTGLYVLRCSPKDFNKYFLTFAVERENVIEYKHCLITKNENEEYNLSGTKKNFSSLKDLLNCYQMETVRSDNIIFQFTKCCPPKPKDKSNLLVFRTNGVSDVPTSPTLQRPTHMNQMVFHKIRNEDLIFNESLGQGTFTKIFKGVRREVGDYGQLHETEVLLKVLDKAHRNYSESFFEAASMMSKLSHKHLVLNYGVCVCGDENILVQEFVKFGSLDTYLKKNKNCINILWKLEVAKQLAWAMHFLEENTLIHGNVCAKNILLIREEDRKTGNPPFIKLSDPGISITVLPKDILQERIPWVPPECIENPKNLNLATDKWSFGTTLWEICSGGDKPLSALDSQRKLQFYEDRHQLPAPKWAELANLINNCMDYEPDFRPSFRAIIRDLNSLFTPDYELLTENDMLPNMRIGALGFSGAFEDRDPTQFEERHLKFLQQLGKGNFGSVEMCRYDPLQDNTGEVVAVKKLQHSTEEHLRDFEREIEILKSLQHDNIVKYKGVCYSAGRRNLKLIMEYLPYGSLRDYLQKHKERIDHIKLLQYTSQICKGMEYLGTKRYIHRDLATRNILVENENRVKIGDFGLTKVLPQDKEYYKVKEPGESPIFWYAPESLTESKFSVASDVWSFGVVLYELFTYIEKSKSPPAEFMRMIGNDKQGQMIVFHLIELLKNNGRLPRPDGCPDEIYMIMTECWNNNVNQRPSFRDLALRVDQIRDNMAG
T2 sequence (O60674 whole entry): as above
T2 sequence (P29597 whole entry): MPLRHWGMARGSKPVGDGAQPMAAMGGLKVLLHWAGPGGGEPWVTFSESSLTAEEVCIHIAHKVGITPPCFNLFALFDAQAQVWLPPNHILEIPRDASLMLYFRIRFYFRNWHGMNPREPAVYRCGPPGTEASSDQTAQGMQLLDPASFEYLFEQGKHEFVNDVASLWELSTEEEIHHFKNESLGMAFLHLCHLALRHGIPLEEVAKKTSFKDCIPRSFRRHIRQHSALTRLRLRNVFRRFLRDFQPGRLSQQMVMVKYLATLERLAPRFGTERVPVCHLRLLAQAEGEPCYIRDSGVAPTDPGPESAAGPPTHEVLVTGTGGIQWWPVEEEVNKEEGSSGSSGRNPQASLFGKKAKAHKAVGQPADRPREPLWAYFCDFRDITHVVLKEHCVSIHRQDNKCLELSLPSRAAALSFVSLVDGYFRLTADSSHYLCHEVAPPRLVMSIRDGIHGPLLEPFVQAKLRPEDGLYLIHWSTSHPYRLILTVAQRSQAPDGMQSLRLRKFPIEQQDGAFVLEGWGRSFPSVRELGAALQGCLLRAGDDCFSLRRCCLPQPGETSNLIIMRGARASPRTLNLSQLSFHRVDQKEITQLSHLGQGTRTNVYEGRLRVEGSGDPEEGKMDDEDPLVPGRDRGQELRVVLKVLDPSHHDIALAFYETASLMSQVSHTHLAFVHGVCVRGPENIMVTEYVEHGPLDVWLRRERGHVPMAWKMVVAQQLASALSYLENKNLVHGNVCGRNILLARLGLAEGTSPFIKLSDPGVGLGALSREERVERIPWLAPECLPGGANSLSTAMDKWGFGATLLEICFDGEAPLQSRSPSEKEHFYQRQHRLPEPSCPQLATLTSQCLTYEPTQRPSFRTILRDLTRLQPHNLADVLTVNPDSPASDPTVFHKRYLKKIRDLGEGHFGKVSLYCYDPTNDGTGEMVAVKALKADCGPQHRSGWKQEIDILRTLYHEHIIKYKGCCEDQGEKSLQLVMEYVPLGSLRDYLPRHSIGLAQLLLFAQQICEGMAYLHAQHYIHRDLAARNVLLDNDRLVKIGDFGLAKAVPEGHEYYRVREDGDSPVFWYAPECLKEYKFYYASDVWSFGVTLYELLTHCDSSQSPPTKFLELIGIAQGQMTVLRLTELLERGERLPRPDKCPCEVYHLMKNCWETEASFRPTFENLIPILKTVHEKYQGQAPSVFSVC
T1 sequence (P29597 whole entry): as above

SMILES: [2H]C([2H])([2H])n1nnc2c3cc(cc21)CO[C@@H]1CCC[C@H]1NC(=O)c1cnc2c(NC)cc(nn12)N3
- Kd [1]: 0.002 nM
- IC50 [2]: 1.7 nM

SMILES: [2H]C([2H])([2H])CC(=O)c1cnc(Nc2cccc(C#N)n2)cc1Nc1nccc(-c2ncn(C([2H])([2H])[2H])n2)c1OC
- Kd [10]: ≤ 100 nM
- Kd [1]: ≤ 10 nM
- Kd [11]: > 10 µM
- IC50 [2]: < 100 nM
- IC50 [12]: ≤ 1000 nM
- IC50 [13]: ≤ 100 nM

SMILES: NC(=O)c1nnc(-c2c(F)cccc2F)cc1Nc1ccc(N2CCOCC2=O)cn1
- IC50 [14]: 81 nM
- IC50 [15]: 5 nM
- IC50 [16]: 7 nM
- IC50 [17]: 0.08 nM
- IC50 (JAK2/TYK2 [18]): 0.3 nM

SMILES: NC(=O)c1nnc(-c2c(F)cccc2F)cc1Nc1ccc(N2CCOCC2)cn1
- IC50 [14]: 38 nM
- IC50 [15]: 4 nM
- IC50 [16]: 1 nM
- IC50 [17]: < 0.06 nM
- IC50 (JAK2/TYK2 [18]): 0.08 nM

SMILES: CNc1cc(Nc2cccn(-c3cnc(C(C)(C)O)cn3)c2=O)nc2c(C(=O)NC3CCC3)cnn12
- Kd [20]: < 200 pM
- Kd [10]: 5000 nM
- inhibition [21]: < 50%
- inhibition [22]: < 50%
- IC50 (JAK2/TYK2 [23]): < 500 nM
- IC50 (JAK2/TYK2 [24]): < 500 nM

SMILES: [2H]C([2H])([2H])CC(=O)c1cnc(Nc2cccc(C#N)n2)cc1Nc1cccc(-c2ncn(C([2H])([2H])[2H])n2)c1OC
- Kd [10]: ≤ 100 nM
- Kd [1]: ≤ 10 nM
- Kd [11]: > 10 µM
- IC50 [2]: < 100 nM
- IC50 [12]: ≤ 1000 nM
- IC50 [13]: ≤ 100 nM

SMILES: CCOc1cccc(Nc2cc(NC)n3ncc(C(=O)N[C@@H]4CCN(C)C4=O)c3n2)n1
- IC50 [25]: < 254 nM
- IC50 [26]: 38 nM

SMILES: COC(=O)c1nnc(NC(=O)C2CC2)cc1Nc1cccc2c1N(C)Cc1cn(C)nc1-2
- IC50 [8]: < 30 nM
- IC50 [9]: < 30 nM

SMILES: CNc1cc(Nc2cccn(-c3ccccn3)c2=O)nc2c(C(=O)N[C@@H]3CCN(C)C3=O)cnn12
- IC50 [25]: < 254 nM
- IC50 [26]: 112 nM

The next lines start with the values.

- IC50 (JAK2/TYK2 [3]): 1.82 nM
- IC50 [4]: > 10 µM
- half-life [5]: 88.8 min
- Cmax [6]: 911 ng/mL
- AUC(0-t) at 24 h [7]: 2100 ng·h/mL
SMILES: COc1cc(Nc2cc(NC(C)=O)ncc2-c2ccc(F)cn2)nc(S(C)(=O)=O)c1

- IC50 [8]: < 30 nM
- IC50 [9]: < 30 nM
SMILES: [2H]C([2H])([2H])NC(=O)c1nnc(NC(=O)C2CC2)cc1Nc1cccc2c1N(C)Cc1cccnc1-2

- IC50 [19]: < 1 nM
SMILES: [2H]C([2H])([2H])NC(=O)c1nnc(NC(=O)C2CC2)cc1Nc1ncc(C2CC2)cc1S(C)(=O)=O

- Kd [20]: 9 pM
SMILES: [2H]C([2H])([2H])NC(=O)c1nnc(NC(=O)C2CC2)cc1Nc1cccc(-n2cc3c(n2)CN(S(C)(=N)=O)C3)c1OC (stereo unspecified)

- IC50 [8]: < 30 nM
- IC50 [9]: < 30 nM
SMILES: [2H]C([2H])([2H])NC(=O)c1nnc(NC(=O)C2CC2)cc1Nc1cccc2c1N(C)Cc1cn(C)nc1-2

- IC50 (JAK2/TYK2 [3]): 1 nM
- IC50 [4]: > 10 µM
- half-life [5]: 124 min
- Cmax [6]: 8.73 ng/mL
- AUC(0-t) at 24 h [7]: 19.3 ng·h/mL
SMILES: COc1cc(Nc2cc(NC(C)=O)ncc2-c2ccc(C(C)(C)O)cn2)nc(S(C)(=O)=O)c1

- IC50 [27]: 47 nM
SMILES: [2H]C([2H])([2H])NC(=O)c1nnc(NC(=O)[C@H]2CC23CC3)cc1Nc1ncccc1S(C)(=O)=O

- IC50 [27]: 6 nM
SMILES: [2H]C([2H])([2H])NC(=O)c1nnc(Nc2ccc(C(C)(C)O)cn2)cc1Nc1nc(C)ccc1S(C)(=O)=O

- IC50 [8]: < 30 nM
- IC50 [9]: < 30 nM
SMILES: [2H]C([2H])([2H])NC(=O)c1nnc(NC(=O)C2CC2)cc1Nc1cccc2c1N(C)Cc1cn(C([2H])([2H])[2H])nc1-2
